Assays:
Test in all cases: relative viability (nuclei count vs DMSO), 5 days (fraction); higher = more cells survive
A-427 = system: A-427
Procedure, shortened: (§1)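 Lung cancer cell lines were seeded in 1536-well plates and dosed by pin tool the next day, with either a single drug or a fixed anchor-drug dose combined with five library-drug doses (not always all listed) spaced in √10 steps. Five days later, one step fixed the cells and stained their nuclei (final 0.05% Triton X-100, 1% formaldehyde, 1 ug/ml Hoechst), and nuclei were counted on 4× images. Relative viability is the nuclei count in treated wells divided by the count in vehicle wells, and each value is the median of duplicate plates.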

HCC-15 = system: HCC-15
Procedure, shortened: as §1

HCC-78 = system: HCC-78
Procedure, shortened: as §1

HOP-62 = system: HOP-62
Procedure, shortened: as §1

LC-2-ad = system: LC-2-ad
Procedure, shortened: as §1

LXF-289 = system: LXF-289
Procedure, shortened: as §1

NCI-H1734 = system: NCI-H1734
Procedure, shortened: as §1

NCI-H1755 = system: NCI-H1755
Procedure, shortened: as §1

NCI-H1792 = system: NCI-H1792
Procedure, shortened: as §1

NCI-H1915 = system: NCI-H1915
Procedure, shortened: as §1

NCI-H1975 = system: NCI-H1975
Procedure, shortened: as §1

NCI-H2126 = system: NCI-H2126
Procedure, shortened: as §1

NCI-H2228 = system: NCI-H2228
Procedure, shortened: as §1

NCI-H2342 = system: NCI-H2342
Procedure, shortened: as §1

NCI-H2347 = system: NCI-H2347
Procedure, shortened: as §1

NCI-H358 = system: NCI-H358
Procedure, shortened: as §1

NCI-H522 = system: NCI-H522
Procedure, shortened: as §1

NCI-H647 = system: NCI-H647
Procedure, shortened: as §1

PC-3 [JPC-3] = system: PC-3 [JPC-3]
Procedure, shortened: as §1

RERF-LC-KJ = system: RERF-LC-KJ
Procedure, shortened: as §1

SK-LU-1 = system: SK-LU-1
Procedure, shortened: as §1

SW 1573 = system: SW 1573
Procedure, shortened: as §1

O=c1cc(-c2cccc3c2Sc2ccccc2S3)oc(N2CCOCC2)c1 + CC(=O)Nc1cccc(-n2c(=O)n(C3CC3)c(=O)c3c(Nc4ccc(I)cc4F)n(C)c(=O)c(C)c32)c1 [Trametinib] (partner 0.02 µM)
relative viability (A-427; first compound 0.08 µM): 0.718
relative viability (A-427; first compound 0.253 µM): 0.867
relative viability (A-427; first compound 0.8 µM): 0.735
relative viability (A-427; first compound 2.53 µM): 0.709
relative viability (A-427; first compound 8 µM): 0.747
relative viability (HCC-15; first compound 0.08 µM): 0.362
relative viability (HCC-15; first compound 0.253 µM): 0.454
relative viability (HCC-15; first compound 0.8 µM): 0.369
relative viability (HCC-15; first compound 2.53 µM): 0.363
relative viability (HCC-15; first compound 8 µM): 0.38
relative viability (HCC-78; first compound 0.08 µM): 0.712
relative viability (HCC-78; first compound 0.253 µM): 1.03
relative viability (HCC-78; first compound 0.8 µM): 0.677
relative viability (HCC-78; first compound 2.53 µM): 0.786
relative viability (HCC-78; first compound 8 µM): 0.544
relative viability (HOP-62; first compound 0.08 µM): 0.401
relative viability (HOP-62; first compound 0.253 µM): 0.394
relative viability (HOP-62; first compound 0.8 µM): 0.348
relative viability (HOP-62; first compound 2.53 µM): 0.319
relative viability (HOP-62; first compound 8 µM): 0.321
relative viability (LC-2-ad; first compound 0.08 µM): 0.882
relative viability (LC-2-ad; first compound 0.253 µM): 0.967
relative viability (LC-2-ad; first compound 0.8 µM): 0.93
relative viability (LC-2-ad; first compound 2.53 µM): 0.858
relative viability (LC-2-ad; first compound 8 µM): 0.858
relative viability (LXF-289; first compound 0.08 µM): 0.657
relative viability (LXF-289; first compound 0.253 µM): 0.716
relative viability (LXF-289; first compound 0.8 µM): 0.73
relative viability (LXF-289; first compound 2.53 µM): 0.651
relative viability (LXF-289; first compound 8 µM): 0.692
relative viability (NCI-H1734; first compound 0.08 µM): 0.656
relative viability (NCI-H1734; first compound 0.253 µM): 0.72
relative viability (NCI-H1734; first compound 0.8 µM): 0.69
relative viability (NCI-H1734; first compound 8 µM): 0.697
relative viability (NCI-H1755; first compound 0.08 µM): 0.739
relative viability (NCI-H1755; first compound 0.253 µM): 0.867
relative viability (NCI-H1755; first compound 0.8 µM): 0.732
relative viability (NCI-H1755; first compound 2.53 µM): 0.789
relative viability (NCI-H1755; first compound 8 µM): 0.787
relative viability (NCI-H1792; first compound 0.08 µM): 0.446
relative viability (NCI-H1792; first compound 0.253 µM): 0.685
relative viability (NCI-H1792; first compound 0.8 µM): 0.441
relative viability (NCI-H1792; first compound 2.53 µM): 0.421
relative viability (NCI-H1792; first compound 8 µM): 0.38
relative viability (NCI-H1915; first compound 0.08 µM): 0.293
relative viability (NCI-H1915; first compound 0.253 µM): 0.312
relative viability (NCI-H1915; first compound 0.8 µM): 0.32
relative viability (NCI-H1915; first compound 2.53 µM): 0.285
relative viability (NCI-H1915; first compound 8 µM): 0.264
relative viability (NCI-H1975; first compound 0.08 µM): 0.323
relative viability (NCI-H1975; first compound 0.253 µM): 0.295
relative viability (NCI-H1975; first compound 0.8 µM): 0.327
relative viability (NCI-H1975; first compound 2.53 µM): 0.347
relative viability (NCI-H1975; first compound 8 µM): 0.39
relative viability (NCI-H2126; first compound 0.08 µM): 0.583
relative viability (NCI-H2126; first compound 0.253 µM): 0.583
relative viability (NCI-H2126; first compound 0.8 µM): 0.526
relative viability (NCI-H2126; first compound 2.53 µM): 0.508
relative viability (NCI-H2126; first compound 8 µM): 0.474
relative viability (NCI-H2228; first compound 0.08 µM): 0.554
relative viability (NCI-H2228; first compound 0.253 µM): 0.72
relative viability (NCI-H2228; first compound 0.8 µM): 0.582
relative viability (NCI-H2228; first compound 2.53 µM): 0.416
relative viability (NCI-H2228; first compound 8 µM): 0.447
relative viability (NCI-H2342; first compound 0.08 µM): 0.744
relative viability (NCI-H2342; first compound 0.253 µM): 0.897
relative viability (NCI-H2342; first compound 0.8 µM): 0.736
relative viability (NCI-H2342; first compound 2.53 µM): 0.716
relative viability (NCI-H2342; first compound 8 µM): 0.935
relative viability (NCI-H2347; first compound 0.08 µM): 0.283
relative viability (NCI-H2347; first compound 0.253 µM): 0.266
relative viability (NCI-H2347; first compound 0.8 µM): 0.264
relative viability (NCI-H2347; first compound 2.53 µM): 0.27
relative viability (NCI-H2347; first compound 8 µM): 0.295
relative viability (NCI-H358; first compound 0.08 µM): 0.123
relative viability (NCI-H358; first compound 0.253 µM): 0.134
relative viability (NCI-H358; first compound 0.8 µM): 0.123
relative viability (NCI-H358; first compound 2.53 µM): 0.111
relative viability (NCI-H358; first compound 8 µM): 0.152
relative viability (NCI-H522; first compound 0.08 µM): 0.725
relative viability (NCI-H522; first compound 0.253 µM): 0.988
relative viability (NCI-H522; first compound 0.8 µM): 0.724
relative viability (NCI-H522; first compound 2.53 µM): 0.815
relative viability (NCI-H522; first compound 8 µM): 0.734
relative viability (NCI-H647; first compound 0.08 µM): 0.452
relative viability (NCI-H647; first compound 0.253 µM): 0.543
relative viability (NCI-H647; first compound 0.8 µM): 0.405
relative viability (NCI-H647; first compound 2.53 µM): 0.376
relative viability (NCI-H647; first compound 8 µM): 0.418
relative viability (PC-3 [JPC-3]; first compound 0.08 µM): 0.542
relative viability (PC-3 [JPC-3]; first compound 0.253 µM): 0.732
relative viability (PC-3 [JPC-3]; first compound 0.8 µM): 0.53
relative viability (PC-3 [JPC-3]; first compound 2.53 µM): 0.617
relative viability (PC-3 [JPC-3]; first compound 8 µM): 0.673
relative viability (RERF-LC-KJ; first compound 0.08 µM): 0.79
relative viability (RERF-LC-KJ; first compound 0.253 µM): 0.856
relative viability (RERF-LC-KJ; first compound 0.8 µM): 0.89
relative viability (RERF-LC-KJ; first compound 2.53 µM): 0.895
relative viability (RERF-LC-KJ; first compound 8 µM): 0.784
relative viability (SK-LU-1; first compound 0.08 µM): 0.422
relative viability (SK-LU-1; first compound 0.253 µM): 0.512
relative viability (SK-LU-1; first compound 0.8 µM): 0.582
relative viability (SK-LU-1; first compound 2.53 µM): 0.414
relative viability (SK-LU-1; first compound 8 µM): 0.415
relative viability (SW 1573; first compound 0.08 µM): 0.597
relative viability (SW 1573; first compound 0.253 µM): 0.691
relative viability (SW 1573; first compound 0.8 µM): 0.575
relative viability (SW 1573; first compound 2.53 µM): 0.574
relative viability (SW 1573; first compound 8 µM): 0.554
